In the supplement of paper PMC10307832:

Experiments:
Assay in all cases: relative viability (nuclei count vs DMSO), 5 days (fraction); higher = more cells survive
NCI-H1355 = system: NCI-H1355
Procedure, shortened: (§1)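 Dosing by pin tool came one day after lung cancer cell lines were seeded in 1536-well plates, using either one drug or a fixed anchor-drug dose plus five library-drug doses (not always all listed) in √10 steps. After 5 days, nuclei were counted on 4× images. Relative viability is treated-well nuclei count divided by vehicle-well nuclei count, and values are medians of duplicate plates.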

RERF-LC-KJ = system: RERF-LC-KJ
Procedure, shortened: as §1

SW 1573 = system: SW 1573
Procedure, shortened: as §1

HCC-15 = system: HCC-15
Procedure, shortened: as §1

COR-L23 = system: COR-L23
Procedure, shortened: as §1

LK-2 = system: LK-2
Procedure, shortened: as §1

NCI-H661 = system: NCI-H661
Procedure, shortened: as §1

HCC-827 = system: HCC-827
Procedure, shortened: as §1

ABC-1 = system: ABC-1
Procedure, shortened: as §1

SK-MES-1 = system: SK-MES-1
Procedure, shortened: as §1

NCI-H2405 = system: NCI-H2405
Procedure, shortened: as §1

NCI-H1651 = system: NCI-H1651
Procedure, shortened: as §1

NCI-H520 = system: NCI-H520
Procedure, shortened: as §1

H3255 = system: H3255
Procedure, shortened: as §1

PC-3 [JPC-3] = system: PC-3 [JPC-3]
Procedure, shortened: as §1

NCI-H1650 = system: NCI-H1650
Procedure, shortened: as §1

PC-14 = system: PC-14
Procedure, shortened: as §1

EKVX = system: EKVX
Procedure, shortened: as §1

NCI-H1437 = system: NCI-H1437
Procedure, shortened: as §1

NCI-H1734 = system: NCI-H1734
Procedure, shortened: as §1

NCI-H322M = system: NCI-H322M
Procedure, shortened: as §1

CC(C)Oc1cc(Nc2nc(N[C@@H](C)c3ccc(F)cn3)ncc2Cl)n[nH]1 [AZ23] + Nc1ncn([C@H]2C[C@H](O)[C@@H](CO)O2)c(=O)n1 [Decitabine] (partner 2 µM) was tested, and the relative viability (NCI-H1355; first compound 0.01 µM) was 0.377, the relative viability (NCI-H1355; first compound 0.03162 µM) was 0.366 and the relative viability (NCI-H1355; first compound 0.3162 µM) was 0.333. It also gave a relative viability (RERF-LC-KJ; first compound 0.01 µM) of 0.783, a relative viability (RERF-LC-KJ; first compound 0.03162 µM) of 0.74 and a relative viability (RERF-LC-KJ; first compound 0.3162 µM) of 0.817. The relative viability (SW 1573; first compound 0.01 µM) was 0.699, the relative viability (SW 1573; first compound 0.03162 µM) was 0.553 and the relative viability (SW 1573; first compound 0.3162 µM) was 0.612. It also gave a relative viability (HCC-15; first compound 0.01 µM) of 0.654, a relative viability (HCC-15; first compound 0.03162 µM) of 0.596 and a relative viability (HCC-15; first compound 0.3162 µM) of 0.663. It also gave a relative viability (COR-L23; first compound 0.01 µM) of 0.361, a relative viability (COR-L23; first compound 0.03162 µM) of 0.497 and a relative viability (COR-L23; first compound 0.3162 µM) of 0.449. For the same compound, the relative viability (LK-2; first compound 0.01 µM) was 0.337, the relative viability (LK-2; first compound 0.03162 µM) was 0.306 and the relative viability (LK-2; first compound 0.3162 µM) was 0.272. The relative viability (NCI-H661; first compound 0.01 µM) was 0.556, the relative viability (NCI-H661; first compound 0.03162 µM) was 0.582 and the relative viability (NCI-H661; first compound 0.3162 µM) was 0.604. For the same compound, the relative viability (HCC-827; first compound 0.01 µM) was 0.361, the relative viability (HCC-827; first compound 0.03162 µM) was 0.316 and the relative viability (HCC-827; first compound 0.3162 µM) was 0.323. For the same compound, the relative viability (ABC-1; first compound 0.01 µM) was 1, the relative viability (ABC-1; first compound 0.03162 µM) was 1.22 and the relative viability (ABC-1; first compound 0.3162 µM) was 0.96. It also gave a relative viability (SK-MES-1; first compound 0.03162 µM) of 0.382, a relative viability (SK-MES-1; first compound 0.3162 µM) of 0.357 and a relative viability (NCI-H2405; first compound 0.01 µM) of 0.774. For the same compound, the relative viability (NCI-H2405; first compound 0.03162 µM) was 0.805, the relative viability (NCI-H2405; first compound 0.3162 µM) was 0.721 and the relative viability (NCI-H1651; first compound 0.01 µM) was 0.621. For the same compound, the relative viability (NCI-H1651; first compound 0.03162 µM) was 0.644, the relative viability (NCI-H1651; first compound 0.3162 µM) was 0.618 and the relative viability (NCI-H520; first compound 0.01 µM) was 0.634. It also gave a relative viability (NCI-H520; first compound 0.03162 µM) of 0.524, a relative viability (NCI-H520; first compound 0.3162 µM) of 0.418 and a relative viability (H3255; first compound 0.01 µM) of 0.496. For the same compound, the relative viability (H3255; first compound 0.03162 µM) was 0.634, the relative viability (H3255; first compound 0.3162 µM) was 0.613 and the relative viability (PC-3 [JPC-3]; first compound 0.01 µM) was 0.812. The relative viability (PC-3 [JPC-3]; first compound 0.03162 µM) was 0.851, the relative viability (PC-3 [JPC-3]; first compound 0.3162 µM) was 0.885 and the relative viability (NCI-H1650; first compound 0.01 µM) was 0.421. The relative viability (NCI-H1650; first compound 0.03162 µM) was 0.41, the relative viability (NCI-H1650; first compound 0.3162 µM) was 0.481 and the relative viability (PC-14; first compound 0.01 µM) was 0.191. It also gave a relative viability (PC-14; first compound 0.03162 µM) of 0.213, a relative viability (PC-14; first compound 0.3162 µM) of 0.263 and a relative viability (EKVX; first compound 0.01 µM) of 0.395. It also gave a relative viability (EKVX; first compound 0.03162 µM) of 0.365, a relative viability (EKVX; first compound 0.3162 µM) of 0.345 and a relative viability (NCI-H1437; first compound 0.01 µM) of 0.57. It also gave a relative viability (NCI-H1437; first compound 0.03162 µM) of 0.552, a relative viability (NCI-H1437; first compound 0.3162 µM) of 0.56 and a relative viability (NCI-H1734; first compound 0.01 µM) of 0.532. The relative viability (NCI-H1734; first compound 0.03162 µM) was 0.521, the relative viability (NCI-H1734; first compound 0.3162 µM) was 0.482 and the relative viability (NCI-H322M; first compound 0.01 µM) was 0.533. For the same compound, the relative viability (NCI-H322M; first compound 0.03162 µM) was 0.668 and the relative viability (NCI-H322M; first compound 0.3162 µM) was 0.7.
